Structures are written as SMILES. pEC50: −log10 of the molar value.

In assay [1] the target is T1, Trace amine-associated receptor 1 (Homo sapiens, UniProt Q96RJ0).
T1 sequence (Q96RJ0 whole entry): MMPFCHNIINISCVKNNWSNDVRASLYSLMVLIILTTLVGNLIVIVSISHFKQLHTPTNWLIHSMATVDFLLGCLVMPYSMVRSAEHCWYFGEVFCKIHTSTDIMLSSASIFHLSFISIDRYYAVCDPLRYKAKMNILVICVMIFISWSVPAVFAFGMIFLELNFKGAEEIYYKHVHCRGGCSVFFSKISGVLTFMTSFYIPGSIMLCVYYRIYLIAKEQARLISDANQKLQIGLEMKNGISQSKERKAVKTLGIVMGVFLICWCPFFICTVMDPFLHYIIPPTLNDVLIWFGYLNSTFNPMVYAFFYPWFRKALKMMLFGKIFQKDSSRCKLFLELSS
Put plainly: Agonist activity at TAAR1 (unknown origin) transfected in HEK293 cells co-transfected with GalphaS-Nluc, Gbeta1/3 and Ggamma1/2/9-mVenus assessed as GalphaS-Gbeta/gamma dissociation by BRET assay. The class given is functional, cell-based.

The target in assay [2] is T1, Trace amine-associated receptor 1. Description: Agonist activity at TAAR1 (unknown origin) transfected in HEK293 cells co-transfected with Galphaq-Nluc, Gbeta1/3 and Ggamma1/2/9-mVenus assessed as Galphaq-Gbeta/gamma dissociation by BRET assay. The class given is functional, cell-based.

Take `O=S(=O)(NC[C@@H]1CCCN1)c1cc(F)cc(F)c1`: the negative logarithm of the EC50 (pEC50) in assay [1] and in assay [2] was less than 5.00 in each case.

With `O=S(=O)(NC[C@@H]1CCCN1)c1ccccc1C(F)(F)F`, the negative-log EC50 (pEC50) in assay [1] and in assay [2] was less than 5.00 in each case.

Turning to `CC(C)CC(N)c1nc2ccccc2[nH]1` (stereo not given), the negative logarithm of the EC50 (pEC50) in assay [1] is 7.00.

Take `O=S(=O)(NC[C@@H]1CCCN1)c1cccc(Br)c1`: the pEC50 in assay [1] and in assay [2] was less than 5.00 throughout.

Consider `CC(=O)Nc1ccc(S(=O)(=O)NC[C@@H]2CCCN2)cc1`, for which the negative-log EC50 (pEC50) in assay [2] is 7.38.

Consider `O=S(=O)(NC[C@@H]1CCCN1)c1ccc2[nH]cnc2c1`, for which the negative-log EC50 (pEC50) in assay [1] was 7.33; in assay [2] it was 6.88.

Consider `COc1ccc(S(=O)(=O)NC[C@@H]2CCCN2)cc1`, for which, in assay [2], the negative logarithm of the EC50 (pEC50) was 7.45.

Regarding `O=S(=O)(NC[C@@H]1CCCN1)c1ccc2c(c1)CCC2`, the negative-log EC50 (pEC50) in assay [1] and in assay [2] was less than 5.00 in each case.

`O=S(=O)(NC[C@@H]1CCCN1)c1ccccc1`: the pEC50 in assay [1] and in assay [2] was less than 5.00 each time.

With `O=c1[nH]c2ccc(S(=O)(=O)NC[C@@H]3CCCN3)cc2[nH]c1=O`, the pEC50 in assay [2] is 8.26.

Regarding `O=S(=O)(NC[C@@H]1CCCN1)c1ccc2ccccc2c1`, the pEC50 in assay [2] is 7.26.

Regarding `O=S(=O)(NC[C@@H]1CCCN1)c1cccc(Cl)c1`, the pEC50 in assay [1] and in assay [2] was less than 5.00 each time.

For `COc1ccc2c(c1OC)C(=O)OC2Nc1ccccn1` (stereo not given), in assay [1], the pEC50 was 6.79.

For `N[C@H]1CN(c2ncccc2C(F)(F)F)C[C@@H]1C1CC1`, the negative logarithm of the EC50 (pEC50) in assay [2] was 7.04.

As to `O=S(=O)(NC[C@@H]1CCCN1)c1cccc(C(F)(F)F)c1`, the negative logarithm of the EC50 (pEC50) in assay [1] and in assay [2] was less than 5.00 throughout.

In the case of `CCC[C@H]1CN(C(=O)c2cc(Cl)cn2C)C[C@@H]1N`, in assay [1], the pEC50 was 6.56.

For the compound `Cc1ccccc1S(=O)(=O)NC[C@@H]1CCCN1`, the pEC50 in assay [1] and in assay [2] was less than 5.00 throughout.

For the compound `COc1ccccc1S(=O)(=O)NC[C@@H]1CCCN1`, in assay [2], the pEC50 is 8.11.

For the compound `N#Cc1ccc(S(=O)(=O)NC[C@@H]2CCCN2)cc1`, the pEC50 in assay [1] and in assay [2] was less than 5.00 in each case.

Take `O=S(=O)(NC[C@@H]1CCCN1)c1ccccc1Cl`: the negative logarithm of the EC50 (pEC50) in assay [2] was 7.20.

As for `Cc1ccc(S(=O)(=O)NC[C@@H]2CCCN2)cc1`, the negative logarithm of the EC50 (pEC50) in assay [1] and in assay [2] was less than 5.00 in each case.

On to `O=c1[nH]c2cc(S(=O)(=O)NC[C@@H]3CCCN3)ccc2o1`, for which, in assay [1], the pEC50 is 6.80.

On to `O=S(=O)(NC[C@@H]1CCCN1)c1ccc(Cl)s1`, for which the negative-log EC50 (pEC50) in assay [1] and in assay [2] was less than 5.00 each time.

As to `O=[N+]([O-])c1ccccc1S(=O)(=O)NC[C@@H]1CCCN1`, the negative-log EC50 (pEC50) in assay [1] and in assay [2] was less than 5.00 throughout.

`O=[N+]([O-])c1cccc(S(=O)(=O)NC[C@@H]2CCCN2)c1`: the negative logarithm of the EC50 (pEC50) in assay [1] and in assay [2] was less than 5.00 each time.

For `O=c1[nH]c2ccc(S(=O)(=O)NC[C@@H]3CCCN3)cc2[nH]1`, the pEC50 in assay [1] and in assay [2] was less than 5.00 each time.

For `O=S(=O)(NC[C@@H]1CCCN1)c1ccc(C(F)(F)F)cc1`, the negative-log EC50 (pEC50) in assay [1] and in assay [2] was less than 5.00 in each case.

Consider `O=S(=O)(NC[C@@H]1CCCN1)c1ccc(Cl)cc1`, for which the negative-log EC50 (pEC50) in assay [1] and in assay [2] was less than 5.00 in each case.

For the compound `O=S(=O)(NC[C@@H]1CCCN1)c1c(Cl)cccc1Cl`, the pEC50 in assay [1] and in assay [2] was less than 5.00 throughout.

Take `O=[N+]([O-])c1ccc(S(=O)(=O)NC[C@@H]2CCCN2)cc1`: the pEC50 in assay [1] and in assay [2] was less than 5.00 each time.

Take `Cc1cccc(S(=O)(=O)NC[C@@H]2CCCN2)c1`: the negative-log EC50 (pEC50) in assay [1] and in assay [2] was less than 5.00 each time.

Take `O=S(=O)(NC[C@@H]1CCCN1)c1ccccc1Br`: the negative logarithm of the EC50 (pEC50) in assay [1] and in assay [2] was less than 5.00 each time.

For the compound `N#Cc1cccc(S(=O)(=O)NC[C@@H]2CCCN2)c1`, the pEC50 in assay [1] and in assay [2] was less than 5.00 each time.

On to `O=S(=O)(NC[C@@H]1CCCN1)c1ccc(O)cc1`, for which the negative-log EC50 (pEC50) in assay [1] and in assay [2] was less than 5.00 throughout.

As to `O=S(=O)(NC[C@@H]1CCCN1)c1ccc(Br)cc1`, the pEC50 in assay [1] and in assay [2] was less than 5.00 in each case.

For `CNc1ncc(S(C)(=O)=O)c(C2CCCNC2)n1` (stereo not given), the negative-log EC50 (pEC50) in assay [1] was 7.31.

(Values after ChEMBL document CHEMBL6177995, “In Silico Discovery of Novel Potent Trace Amine-Associated Receptor TAAR1 Agonists as Promising Drug Candidates for the Treatment of Schizophrenia” (J Med Chem, 2025).)
